Source: patent US9150829B2, “Culture of pluripotent and multipotent cells on microcarriers” (AGENCY FOR SCIENCE, TECHNOLOY AND RESEARCH, priority 2009, dated 2015)
≈ marks a conversion by molar mass, not a printed value.

How the values were obtained:
[1] = target: PKC; details: read-out: Ki PKC; cited from earlier work
[2] = target: Rho kinase (ROCK); details: cited from earlier work
[3] = target: MLCK (Homo sapiens, UniProt Q15746); details: cited from earlier work
[4] = system: hESC (HES-2); assay: Pluripotent marker expression in HES-2 on matrix free microcarriers with ROCK inhibitors; assay type: cell-based, human; details: for expression of pluripotent marker Tra-1-60 / expression of pluripotent marker Oct4: DE53
Method: (§1) Briefly, expression levels of extracellular antigens TRA-1-60 and intracellular transcription factor, Oct-4 in hESC populations are assessed by immunofluorescence using flow cytometry. Cells are harvested as single cell suspensions using trypsin or trypLE express, filtered through a 40 μm sieve (BD) fixed, permeabilised (Caltag Laboratories) and incubated with primary antibodies to TRA-1-60 (1:50 dilution, Chemicon, MAB4360/4381) and to Oct-4 (1:20 dilution, Santa Cruz).
(§2) Cells are then washed with 1% BSA/PBS, and incubated in the dark with a 1:500 dilution of goat α-mouse antibody FITC-conjugated (DAKO). After incubation, the cells are again washed and resuspended in 1% BSA/PBS for analysis on a FACScan (Becton Dickinson FACS Calibur). All incubations are performed at room temperature for 15 min.
A range of ROCK inhibitors (at 10 μM) were tested for their ability to allow hESC (HES-2) cell culture on matrix free cellulose DE53 microcarriers. These included fasudil, hydroxyfasudil and […] and were compared to a control (DE53 microcarriers coated in Matrigel).

[5] = target: phosphatidylinositol 3 (PI3) kinase; details: cited from earlier work
[6] = system: P14 kinase, PKC, MAP kinase or c-Src; details: concentration of 50 μM; cited from earlier work
[7] = system: iPS IMR90 cells; assay: Human iPS cell growth on uncoated DE53 microcarriers with ROCK inhibitor; assay type: cell-based; details: uncoated DE53, mTeSR1, 10 μM daily, 12 passages
Method: (§3) iPS IMR90 cells (1.6×10^5 cells/ml) were cultured in wells of a 6-well plate with 20 mg of uncoated DE53, 5 ml of serum free media mTeSR1, 4 μl of ROCK inhibitor (Y27632) [10 μM]. 80% media refreshment and addition of inhibitor was carried out daily.

[8] = system: iPS IMR90 cells; assay: Pluripotent marker expression in human iPS cells on DE53 microcarriers; assay type: cell-based; details: uncoated DE53, mTeSR1, 10 μM daily, 12 passages
Method: as §1, §2, §3

[9] = system: hESC (HES-2); assay: Pluripotent marker expression in HES-2 on matrix free microcarriers with ROCK inhibitors; assay type: cell-based, human; details: Cytodex 1, 10 μM, passage 5
[10] = system: hESC; assay: FACS of pluripotent markers in hESC on microcarriers; assay type: cell-based, human
Method: Characterisation was performed according to our recent paper by Oh et al., 2009 (Long term microcarrier suspension cultures of human embryonic stem cells, Stem Cell Research (2009)).
as §1, §2

[11] = system: hESC; assay: hESC growth and passaging on uncoated microcarriers without Matrigel with ROCK inhibitor; assay type: cell-based, human
Method: Cells suspension obtained either from dispersed 2D colony culture or directly from liquid nitrogen storage (200×200 μm tissue obtained from 2D colony culture or as cell-microcarriers aggregates) are seeded at concentrations of 0.1-0.3×10^6/ml on microcarrier suspension (4 mg/ml). […] The media used are either MEF-CM or defined media. Medium is changed daily. The cultures are passaged weekly following either enzymatic treatment with collagenase or trypLE or following mechanical dissociating by repeated pipetting at a split ratio of 1:2 to 1:10. Replating of microcarrier cultures to 2D colony culture is done by placing confluent cell-microcarrier aggregates on Matrigel coated 6 cm tissue culture petridish with 8 mls of media, and culturing the cells for 7 days. Seeding of hESC on DE53, QA52, Tosoh, Cytodex 1 and Cytodex 3 microcarriers hESC were seeded on uncoated microcarriers and passaged weekly following the protocol of Example 3 and that of Oh et al., 2009 (Long term microcarrier suspension cultures of human embryonic stem cells, Stem Cell Research (2009)). All chemicals were purchased from Calbiochem. All inhibitors were diluted to their final working concentration in conditioned media prior to feeding hESC on microcarriers.

[12] = target: T1, PKCiota-Par6 interaction (Homo sapiens, UniProt P41743); details: read-out: IC50 (PKCiota-Par6 interaction inhibitor); cited from earlier work
T1 sequence (P41743 10-122 limits assumed): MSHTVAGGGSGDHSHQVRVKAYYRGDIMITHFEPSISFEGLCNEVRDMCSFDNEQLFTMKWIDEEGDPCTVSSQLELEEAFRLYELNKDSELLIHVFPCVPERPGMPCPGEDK

[13] = 10 μM, daily continuous addition, after 9 weeks
[14] = single dose addition (10 μM), after 6 weeks (P6)

Sequence of MLCK (Q15746 whole entry): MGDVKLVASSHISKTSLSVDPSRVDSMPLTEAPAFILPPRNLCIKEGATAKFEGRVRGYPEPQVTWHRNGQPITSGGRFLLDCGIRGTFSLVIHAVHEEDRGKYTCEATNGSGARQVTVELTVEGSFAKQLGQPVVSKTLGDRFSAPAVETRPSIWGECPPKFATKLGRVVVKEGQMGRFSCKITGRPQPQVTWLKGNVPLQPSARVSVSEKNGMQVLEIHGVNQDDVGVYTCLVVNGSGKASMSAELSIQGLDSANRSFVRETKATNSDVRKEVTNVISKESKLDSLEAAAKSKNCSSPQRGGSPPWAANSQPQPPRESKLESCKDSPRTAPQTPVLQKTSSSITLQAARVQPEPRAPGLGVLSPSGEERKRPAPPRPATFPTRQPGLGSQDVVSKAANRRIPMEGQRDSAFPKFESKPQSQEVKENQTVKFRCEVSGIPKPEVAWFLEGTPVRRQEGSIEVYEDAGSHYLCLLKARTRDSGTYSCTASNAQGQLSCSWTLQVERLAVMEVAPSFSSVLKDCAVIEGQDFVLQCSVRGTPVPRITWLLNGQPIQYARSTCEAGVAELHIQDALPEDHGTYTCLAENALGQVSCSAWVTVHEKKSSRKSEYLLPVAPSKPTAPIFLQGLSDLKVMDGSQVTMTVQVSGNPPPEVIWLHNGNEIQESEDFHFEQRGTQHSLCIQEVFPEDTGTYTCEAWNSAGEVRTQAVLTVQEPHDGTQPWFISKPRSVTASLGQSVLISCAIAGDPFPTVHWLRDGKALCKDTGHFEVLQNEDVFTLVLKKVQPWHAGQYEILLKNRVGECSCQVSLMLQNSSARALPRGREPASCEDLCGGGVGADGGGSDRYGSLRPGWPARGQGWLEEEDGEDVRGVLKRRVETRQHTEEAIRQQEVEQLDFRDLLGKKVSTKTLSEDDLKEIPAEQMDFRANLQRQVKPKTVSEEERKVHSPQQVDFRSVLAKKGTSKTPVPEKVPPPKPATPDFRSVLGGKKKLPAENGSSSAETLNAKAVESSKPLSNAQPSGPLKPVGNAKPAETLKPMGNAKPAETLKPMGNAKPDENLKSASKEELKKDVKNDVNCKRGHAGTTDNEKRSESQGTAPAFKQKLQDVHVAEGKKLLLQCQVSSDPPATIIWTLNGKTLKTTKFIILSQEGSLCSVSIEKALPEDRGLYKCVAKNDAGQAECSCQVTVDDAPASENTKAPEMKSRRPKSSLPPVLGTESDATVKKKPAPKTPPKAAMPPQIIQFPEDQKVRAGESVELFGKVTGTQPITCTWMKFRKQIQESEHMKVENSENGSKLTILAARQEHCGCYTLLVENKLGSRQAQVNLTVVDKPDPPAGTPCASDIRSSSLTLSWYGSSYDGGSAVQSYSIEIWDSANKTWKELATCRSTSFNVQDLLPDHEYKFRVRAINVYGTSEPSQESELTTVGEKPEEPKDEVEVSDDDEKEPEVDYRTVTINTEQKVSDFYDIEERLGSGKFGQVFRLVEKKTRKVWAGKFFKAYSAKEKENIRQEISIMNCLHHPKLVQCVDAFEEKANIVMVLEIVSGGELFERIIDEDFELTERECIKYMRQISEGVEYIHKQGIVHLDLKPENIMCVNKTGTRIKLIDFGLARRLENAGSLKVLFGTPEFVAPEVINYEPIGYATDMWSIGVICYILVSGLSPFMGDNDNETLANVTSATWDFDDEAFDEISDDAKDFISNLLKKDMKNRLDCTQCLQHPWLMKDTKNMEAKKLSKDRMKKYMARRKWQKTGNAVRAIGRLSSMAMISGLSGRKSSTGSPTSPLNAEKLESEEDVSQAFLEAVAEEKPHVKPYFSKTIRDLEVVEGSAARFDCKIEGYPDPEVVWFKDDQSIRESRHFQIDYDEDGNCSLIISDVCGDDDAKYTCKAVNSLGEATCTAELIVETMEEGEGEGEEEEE

Cc1cncc2cccc(S(=O)(=O)N3CCCNCC3C)c12 (stereo in doubt) [H-1152, (S)-(+)-2-Methyl-1-[(4-methyl-5-isoquinolinyl)sulfonyl]homopiperazine]
Ki [1]: 9.27 µM | Ki [2]: 0.0016 µM | Ki [3]: 10.1 µM

c1ccc2c(-c3ccncc3)c[nH]c2c1 [3-(4-Pyridyl)-1H-indole]
IC50 [2]: 25 µM

O=S(=O)(c1cccc2cnccc12)N1CCCNCC1 [HA-1077]
expression of pluripotent marker Tra-1-60 [4, 13]: about 80% | expression of pluripotent marker Oct4 [4, 14]: 60% | expression of pluripotent marker Tra-1-60 [4, 14]: about 80%

Cl.O=S(=O)(c1cccc2c(O)nccc12)N1CCCNCC1 [HA-1100]
expression of pluripotent marker Tra-1-60 [4, 13]: about 80% | expression of pluripotent marker Oct4 [4, 14]: 60% | expression of pluripotent marker Tra-1-60 [4, 14]: ~50%

O=c1cc(N2CCOCC2)oc2c(-c3ccccc3)cccc12 [LY294002]
IC50 [5]: 1.4 µM | IC50 PI3 kinase activity [5]: 0.43 µg/mL (≈ 1.4 µM) | effect on PI3 kinase activity ([5]; concentration of 50 μM): specifically abolished PI3 kinase activity | inhibition of other lipid and protein kinases [6]: did not inhibit

O=C(Nc1ccncc1)Nc1c(Cl)cc(Cl)cc1Cl [N-(4-Pyridyl)-N′-(2,4,6-trichlorophenyl) urea]
IC50 [2]: 0.2 µM

C[C@@H](N)[C@H]1CC[C@H](C(=O)Nc2ccncc2)CC1 [Y-27632, (R)-(+)-trans-N-(4-Pyridyl)-4-(1-aminoethyl)-cyclohexanecarboxamide.2HCl]
cell density [7]: stable over 12 passages | pluripotent marker expression (Tra-1-60) versus Matrigel control cultures ([4]; Cytodex 1 and DE53 microcarriers, 10 μM): similar | expression of Tra-1-60 (FACS) ([4]; DE53, 10 μM, passage 5): ~92% | expression of pluripotent marker Oct4 [4, 14]: 60% | expression of pluripotent marker Tra-1-60 [4, 14]: about 80% | Oct4 and Tra-1-60 expression [8]: stable over 12 passages | expression of Tra-1-60 (FACS) [9]: ~94% | expression of pluripotent markers Oct4 and mAb 84 ([10]; Cytodex 1, Cytodex 3, cellulose and Tosoh microcarriers without Matrigel, passage 5): robust expression | expression of pluripotent markers Oct4, mAb 84 and Tra-1-60 ([10]; DE53 without Matrigel, 9 weeks): still robust | expression of pluripotent markers Oct4 and mAb 84 ([10]; DE53 without Matrigel, over 3 weeks): stable expression | expression of pluripotent markers Oct4 and Tra-1-60 ([10]; Tosoh polylysine microcarriers without Matrigel, passage 4): strongly expressed | consecutive weeks of passaging hESC ([11]; cellulose DE53 microcarriers, no Matrigel, 10 μM): 9 weeks | cell numbers ([11]; cellulose and Tosoh microcarriers, no Matrigel, passage 5): 4 million/well | consecutive weeks of passaging hESC ([11]; cellulose, Tosoh, Cytodex 1 and Cytodex 3 microcarriers, no Matrigel): five | consecutive weeks of passaging hESC ([11]; spherical polylysine Tosoh 65 micron microcarriers, no Matrigel): six

Aurothioglucose
expression of pluripotent marker Oct4 [4, 13]: ~50% | expression of pluripotent marker Tra-1-60 [4, 13]: ~60% | expression of pluripotent marker Oct4 [4, 14]: 60% | expression of pluripotent marker Tra-1-60 [4, 14]: ~70% | IC50 [12]: 1 µM | expression of pluripotent markers Oct4 and mAb 84 ([10]; cellulose microcarriers without Matrigel, passage 0 and 1, compared to Matrigel control): stable expression | expression of pluripotency markers Oct4 and mAb84 ([10]; uncoated DE53, through passage 4): continued strong expression | passage successfully reached ([11]; uncoated DE53): 4 passage
